Test results as given in patent US4003887A, “Novel penicillins and their preparation” (Sumitomo Chemical Company, Limited, priority 1972, dated 1977).
≈ marks a conversion by molar mass, not a printed value.

Experiments:
[1] = tested on: gram-positive and gram-negative bacteria; conditions: literature, words; cited from earlier work
Pseudomonas = conditions: literature, words; cited from earlier work
[2] = tested on: Klebsiella pneumoniae PC1602; assay: Minimal inhibitory concentration, agar dilution method; format: cell-based
Excerpt: (§1) When determined according to the agar dilution method, the penicillins (I) afford the minimal inhibitory concentrations against test microorganisms as shown in Table 2.

Proteus miravilis GN2425 = assay: as above; format: cell-based
Escherichia coli NIHJ = assay: as above; format: cell-based
Excerpt: as §1

[3] = tested on: Pseudomonas aeruginosa 104; assay: as above; format: cell-based
Excerpt: as §1

[4] = tested on: Staphylococcus aureus 209P; assay: as above; format: cell-based
Excerpt: as §1

MIC [2]	Compound	inhibition of growth of gram-positive and gram-negative bacteria [1]	antimicrobial activity against Pseudomonas (Pseudomonas)	other results
12.5 µg/mL (≈ 23.2 µM)	CC1(C)S[C@@H]2[C@H](NC(=O)[C@H](NC(=O)c3cnc4cncnc4c3O)c3ccc(O)cc3)C(=O)N2[C@H]1C(=O)O [Example 34]			
12.5 µg/mL (≈ 22.1 µM)	Cc1nc(C)c2ncc(C(=O)N[C@@H](C(=O)N[C@@H]3C(=O)N4[C@@H]3SC(C)(C)[C@@H]4C(=O)O)c3ccc(O)cc3)c(O)c2n1 [Example 35]			
25 µg/mL (≈ 37.3 µM)	CCOC(=O)Oc1ccc([C@@H](NC(=O)c2cnc3c(OC)nc(OC)nc3c2O)C(=O)N[C@@H]2C(=O)N3[C@@H]2SC(C)(C)[C@@H]3C(=O)O)cc1 [Example 36]			
12.5 µg/mL (≈ 18.3 µM)	CCOC(=O)Oc1ccc([C@@H](NC(=O)c2cnc3cccnc3c2OC(=O)OCC)C(=O)N[C@@H]2C(=O)N3[C@@H]2SC(C)(C)[C@@H]3C(=O)O)cc1 [Example 37]			
6.25 µg/mL (≈ 9.35 µM)	CCOC(=O)Oc1ccc([C@@H](NC(=O)c2cnc3cc4c(cc3c2S)OCO4)C(=O)N[C@@H]2C(=O)N3[C@@H]2SC(C)(C)[C@@H]3C(=O)O)cc1 [Example 38]			
6.25 µg/mL (≈ 9.99 µM)	CCOC(=O)Oc1ccc([C@@H](NC(=O)c2cnc3cccnc3c2S)C(=O)N[C@@H]2C(=O)N3[C@@H]2SC(C)(C)[C@@H]3C(=O)O)cc1 [Example 39]			
25 µg/mL (≈ 40.2 µM)	CC1(C)S[C@@H]2[C@H](NC(=O)C(NC(=O)c3cnc4cccnc4c3S)c3cc(Cl)c(O)c(Cl)c3)C(=O)N2[C@H]1C(=O)O (some centres unmarked) [Example 40]			
25 µg/mL (≈ 44 µM)	COc1cnc2c(O)c(C(=O)N[C@@H](C(=O)N[C@@H]3C(=O)N4[C@@H]3SC(C)(C)[C@@H]4C(=O)O)c3ccc(O)cc3)cnc2n1 [Example 41]			
12.5 µg/mL (≈ 20.3 µM)	CCOC(=O)Oc1ccc([C@@H](NC(=O)c2cnc3scnc3c2O)C(=O)N[C@@H]2C(=O)N3[C@@H]2SC(C)(C)[C@@H]3C(=O)O)cc1 [Example 42]			
6.25 µg/mL (≈ 11.3 µM)	CC1(C)S[C@@H]2[C@H](NC(=O)[C@H](NC(=O)c3cnc4cccnc4c3S)c3ccc(O)cc3)C(=O)N2[C@H]1C(=O)O [Example 43]			

The next lines start with the compound.

Compound	MIC [2]	inhibition of growth of gram-positive and gram-negative bacteria [1]	antimicrobial activity against Pseudomonas (Pseudomonas)	other results
6 -(α-amino-isothiazolylacetamido)penicillanic acid		inhibit the growth of various gram-positive and gram-negative bacteria	do not exert any appreciable antimicrobial activity against Pseudomonas	
6-(α-amino-thienylacetamido)penicillanic acid		inhibit the growth of various gram-positive and gram-negative bacteria	do not exert any appreciable antimicrobial activity against Pseudomonas	
CC1(C)S[C@@H]2C(NC(=O)C(N)c3ccc(O)cc3)C(=O)N2[C@H]1C(=O)O (stereo partly drawn) [Amoxycillin, 6-(α-amino-p-hydroxyphenylacetamido)penicillanic acid]	> 200 µg/mL	inhibit the growth of various gram-positive and gram-negative bacteria	do not exert any appreciable antimicrobial activity against Pseudomonas	
CC1(C)S[C@@H]2C(NC(=O)C(N)c3ccccc3)C(=O)N2[C@H]1C(=O)O (stereo partly drawn) [Ampicillin, 6-(α-amino-phenylacetamido)penicillanic acid]		inhibit the growth of various gram-positive and gram-negative bacteria	do not exert any appreciable antimicrobial activity against Pseudomonas	
CC1(C)S[C@@H]2[C@H](NC(=O)C3(N)CCCCC3)C(=O)N2[C@H]1C(=O)O [Cyclacillin, 6-(1-amino-cyclohexane)carboxamidopenicillanic acid]		inhibit the growth of various gram-positive and gram-negative bacteria	do not exert any appreciable antimicrobial activity against Pseudomonas	
CC1(C)S[C@@H]2[C@H](NC(=O)[C@H](N)C3=CCC=CC3)C(=O)N2[C@H]1C(=O)O [Epicillin, 6-[α-amino-2-(1,4-hexadienylacetamido)]penicillanic acid]		inhibit the growth of various gram-positive and gram-negative bacteria	do not exert any appreciable antimicrobial activity against Pseudomonas	
CC1(C)S[C@@H]2[C@H](NC(=O)[C@H](NC(=O)c3cnc4ccc(NC(=O)OCc5ccccc5)cc4c3O)c3ccc(O)cc3)C(=O)N2[C@H]1C(=O)O [Example 21]	3.13 µg/mL (≈ 4.56 µM)			MIC (Proteus miravilis GN2425): 12.5 µg/mL (≈ 18.2 µM); MIC (Escherichia coli NIHJ): 12.5 µg/mL (≈ 18.2 µM); MIC [3]: 12.5 µg/mL (≈ 18.2 µM); MIC [4]: 0.39 µg/mL (≈ 0.569 µM)
CC1(C)S[C@@H]2[C@H](NC(=O)C(NC(=O)c3ccccn3)c3ccccc3)C(=O)N2[C@H]1C(=O)O (some centres unmarked) [R, reference compound]				Minimal inhibitory concentration [2]: 50 µg/mL (≈ 110 µM)
